{
  "source": "ChEMBL document CHEMBL1123870",
  "about": "“Limited nerve impulse blockade by \"leashed\" local anesthetics” (1987)",
  "data": [
    {"experiment": "Tonic inhibition of compound action potential by 50% was determined in the absence of avidin in desheathed frog sciatic nerves", "format": "functional", "details": "Amphibia, Sciatic nerve; read-out: ED50 (the source's name)", "units": {"EC50": "µM"}, "values": [
      {"smiles": "CCCCN(C(=O)CCCC[C@H]1SCC2NC(=O)NC21)c1ccc(C(=O)OCCN(C)C)cc1", "note": "(some centres not stated)", "EC50": 1500},
      {"smiles": "CCN(CC)CCOC(=O)c1ccc(NC(=O)OCCOCCOCCO)cc1", "EC50": 3200},
      {"smiles": "CCN(CC)CCOC(=O)c1ccc(NC(=O)CCCC[C@H]2SCC3NC(=O)NC32)cc1", "note": "(some centres not stated)", "EC50": 4200},
      {"smiles": "CCN(CC)CCOC(=O)c1ccc(NC(=O)OCCOCCOCCOCCOCCOCCO)cc1", "EC50": 6600},
      {"smiles": "CCN(CC)CCOC(=O)c1ccc(NC(=O)OCCOCCOCCOC(=O)CCCC[C@H]2SCC3NC(=O)NC32)cc1", "note": "(some centres not stated)", "EC50": 2400},
      {"smiles": "CCN(CC)CCOC(=O)c1ccc(N)cc1", "note": "[PROCAINE]", "EC50": 1300},
      {"smiles": "CCCCNc1ccc(C(=O)OCCN(C)C)cc1", "note": "[TETRACAINE]", "EC50": 12}
    ]}
  ]
}
